These results are taken from patent publication US8211909B2, “Treatment of antibiotic-resistant bacteria infection” (TaiGen Biotechnology Co., Ltd., priority 2008, dated 2012).

For assay [1], the system named is Methicillin-resistant Staphylococcus aureus (MRSA) isolates. The assay can be described thus: MIC by broth microdilution (CLSI) against CAN-ICU MRSA isolates. The format is cell-based. The conditions noted are these: Staphylococcus aureus; for MIC50: read-out: MIC50; for MIC90: read-out: MIC90. From the text:
MRSA isolates (n=193) were obtained as part of the Canadian National Intensive Care Unit (CAN-ICU) Study. 19 medical centers from all regions of Canada with active ICUs participated in the CAN-ICU study included. They were requested to only obtain “clinically significant” specimens from patients with a presumed infectious disease. Surveillance swabs, eye, ear, nose and throat swabs were excluded. Anaerobic organisms and fungal organisms were also excluded.
From September 2005-June 2006 (inclusive), each center collected a maximum of 300 consecutive pathogens isolated from blood, urine, tissue/wound, and respiratory specimens (one pathogen per cultured site per patient) of ICU patients. These isolates were shipped to the reference laboratory (Health Sciences Centre, Winnipeg, Canada) on Amies charcoal swabs, subcultured in appropriate media, and stocked in skim milk at −80° C.
All isolates underwent mecA PCR, as well as molecular characterization (including PVL analysis and fingerprinting), as previously described, to assess whether they were community-associated or healthcare-associated (Christianson et al., J Clin Microbiol. 2007, 45 (6): 1904-11; Mulvey et al., J Clin. Microbiol. 2001, 39(10): 3481-5; Mulvey et al., Emerg Infect Dis. 2005,11(6): 844-50; Oliveira et al., Antimicrob Agents Chemother. 2002, 46(7): 2155-61). The isolates were also subtyped using pulsed-field gel electrophoresis (PFGE) following the Canadian standardized protocol as previously described (Mulvey et al., J Clin Microbiol. 2001, 39(10): 3481-5). Their PFGE fingerprints thus obtained were analyzed with BioNumerics v3.5 (Applied Maths St. Marten-Latem, Belgium) using a position tolerance of 1.0 and an optimization of 1.0. Strain relatedness was determined as previously described (Tenover et al., 1995). The fingerprints of the isolates were compared to the national MRSA fingerprint database and were grouped into one of 10 Canadian epidemic MRSA (CMRSA-1, CMRSA-2, etc) as previously described (Mulvey et al., Emerg Infect Dis. 2005,11(6):844-50).
Compound 1 and other antibiotics were tested for their inhibitory activity against the MRSA isolates using the broth microdilution guidelines as stipulated by the Clinical and Laboratory Standards Institute.
For orientation: In broth dilution the organism is exposed to a series of concentrations in liquid medium.

The subject of the next assay is H. pylori isolates. Nature of the assay: MIC by agar dilution against 200 H. pylori isolates (Taiwan). Type of assay: cell-based, Helicobacter pylori. The conditions noted are these: for share of isolates resistant: 200 H. pylori isolates, resistance: amoxicillin MICs≧0.5, clarithromycin ≧1, metronidazole ≧8, ciprofloxacin ≧1, levofloxacin ≧1 μg/mL; for MIC50 / MIC90: Helicobacter pylori, 200 isolates of H. pylori. On the procedure:
MICs were determined using the agar dilution methods recommended by the Clinical and Laboratory Standards Institute (CLSI-M100-S18).
(In agar dilution, organisms are placed on agar that contains the substance at set levels.)

Assay [2] has as its system methicillin-resistant Staphylococcus aureus. Nature of the assay: MIC by broth microdilution, Taiwan clinical isolates (Compound 1′). The format is cell-based. The following applies: for MIC50 / MIC90: Staphylococcus aureus, MRSA. How it is done: (§1) The Staphylococcus aureus and Streptococcus pneumoniae isolates were obtained by 10 medical centers in all regions of Taiwan. MICs were determined using the broth microdilution method.

The subject of assay [3] is methicillin-resistant Streptococcus pneumoniae. The description is as above. Type of assay: cell-based. The conditions noted are these: for MIC50 / MIC90: Streptococcus pneumoniae. How it is done:
as §1

Assay [4] has as its system Staphylococcus aureus strains (MRSA, hVISA, VISA, VRSA, quinolone-resistant MRSA). The assay can be described thus: MIC by agar dilution against Staphylococcal strains (MRSA, hVISA, VISA, VRSA, quinolone-resistant MRSA). Type of assay: cell-based. The conditions noted are these: Staphylococcus aureus. On the procedure: Compound 1 was tested for its inhibitory effect against 26 Methicillin-resistant Staphylococcus aureus (MRSA) strains, 2 hetero-Vancomycin intermediate Staphylococcus aureus (hVISA) strains, 24 Vancomycin-intermediate Staphylococcus aureus (VISA) strains, 5 Vancomycin-resistant Staphylococcus aureus (VRSA) strains, and 31 quinolone-resistant Vancomycin-susceptibale MRSA strains with defined mutations in QRDR. These mutations were determined by sequencing analysis of the QRDR (gyrA, gyrB, grlA, and grlB). Efflux testing was performed by the reserpine method (Brenwald, et al., Antimicrob. Agents Chemother. 1998, 42: 2032-2035).

The test system of the next assay is S. pneumoniae. Nature of the assay: CANWARD 2007 gram-positive cocci, CLSI broth microdilution. Type of assay: cell-based, Streptococcus pneumoniae. Also noted: MIC50 / MIC90: unit not given here. On the procedure:
(§2) From January-December 2007, 12 hospitals across Canada submitted isolates from patients attending hospital clinics, emergency rooms, medical and surgical wards, and intensive care units. 7881 isolates (CANWARD 2007) were collected including 3473 gram-positive cocci. Susceptibility testing for Compound 1 and Levofloxacin was performed using the Clinical and Laboratory Standards Institute broth microdilution.

The subject of assay [5] is S. aureus (MSSA, CA-MRSA, HA-MRSA, VISA, VRSA). Nature of the assay: CANWARD 2007 / NARSA gram-positive cocci, CLSI broth microdilution. The format is cell-based, Staphylococcus aureus. Also noted: MIC50 / MIC90: unit not given here. On the procedure:
as §2

For assay [6], the system named is Staphylococcus epidermidis (MSSE, MRSE). The assay can be described thus: CANWARD 2007 gram-positive cocci, CLSI broth microdilution. The format is cell-based. Also noted: MIC50 / MIC90: unit not given beside the values. On the procedure:
as §2

Another assay has as its system E. faecalis. Described as above. The format is cell-based. The conditions noted are these: E. faecalis (81). Details: unit not given beside the values. On the procedure:
as §2

Setting [7] is: MRSA (n = 193), read-out: MIC Range Max.
Where [8] appears, read: MRSA (n = 193), read-out: MIC Range Min.
[9] abbreviates: MRSA-CIP (R): MRSA-ciprofloxacin resistant strain.
[10] abbreviates: MRSA-CIP (S): MRSA-ciprofloxacin sensitive strain.
[11] abbreviates: MRSP-Levo (R): Levofloxacin resistant strain.
Where [12] appears, read: MRSP-Levo (S): Levofloxacin sensitive strain.
The mark [13] stands for this setting: MRSA / USA100, USA 100/800 (HA-MRSA).
Where [14] appears, read: MRSA / USA200, USA 200 (HA-MRSA).
[15] abbreviates: MRSA / USA300, USA 300 (CA-MRSA).
Where [16] appears, read: MRSA / USA400, USA 400 (CA-MRSA).
Where [17] appears, read: MRSA / USA600, USA 600 (HA-MRSA).
[18] abbreviates: hVISA(2) + VISA (24) + VRSA (5).

≈ marks a conversion by molar mass, not a printed value. Read-outs that look alike come from different tables or passages of the source.

Turning to `CC[C@H]1OC(=O)[C@H](C)[C@@H](O[C@H]2C[C@@](C)(OC)[C@@H](O)[C@H](C)O2)[C@H](C)[C@@H](O[C@@H]2O[C@H](C)C[C@H](N(C)C)[C@H]2O)[C@](C)(OC)C[C@@H](C)C(=O)[C@H](C)[C@@H](O)[C@]1(C)O` [Clarithromycin], in assay [1] (MRSA (n = 193)), the MIC50 is over 32 µg/mL and the MIC90 was over 32 µg/mL. For the same compound, the MIC – broadly, the smallest concentration in the dilution series that meets the test's criterion for growth inhibition – in [1] (setting [7]) was over 32 µg/mL. Further, the MIC in [1] (setting [8]) worked out at 0.25 µg/mL (≈ 0.334 µM). Further, in the assay with H. pylori isolates, the “share of isolates resistant” value is on record as 6%.

As for `COc1c(N2C[C@H](C)C[C@H](N)C2)ccc2c(=O)c(C(=O)O)cn(C3CC3)c12` [Compound 1′, (3S,5R)-7-[3-amino-5-methyl-piperidinyl]-1-cyclopropyl-1,4-dihydro-8-methoxy-4-oxo-3-quinolinecarboxylic acid], the MIC50 in assay [2] (setting [9]) stood at 1 µg/mL (≈ 2.69 µM); in assay [2] (setting [10]), 0.03 µg/mL (≈ 0.0808 µM); in assay [3] (setting [11]), 0.25 µg/mL (≈ 0.673 µM); in [3] (setting [12]), 0.03 µg/mL (≈ 0.0808 µM). Also, the MIC90 in assay [2] (setting [9]) was 1 µg/mL (≈ 2.69 µM); in [2] (setting [10]), 0.06 µg/mL (≈ 0.162 µM); in [3] (setting [11]) it was 1 µg/mL (≈ 2.69 µM); in assay [3] (setting [12]), 0.06 µg/mL (≈ 0.162 µM). For the same compound, the “inhibition (in words)” value in assay [2] (methicillin-resistant Staphylococcus aureus) and in [3] (methicillin-resistant Streptococcus pneumoniae) was “effective” in each case.

In the case of `C[C@H]1COc2c(N3CCN(C)CC3)c(F)cc3c(=O)c(C(=O)O)cn1c23` [Levofloxacin], the MIC50 in assay [1] (setting [13]) was over 32 µg/mL; in [1] (setting [14]), 32 µg/mL (≈ 88.6 µM); in assay [1] (setting [15]), 8 µg/mL (≈ 22.1 µM); in [1] (setting [16]), 0.25 µg/mL (≈ 0.692 µM); in assay [1] (setting [17]), 32 µg/mL (≈ 88.6 µM); in [1] (MRSA (n = 193)), over 32 µg/mL. Also, the MIC50 turned out to be 0.25 µg/mL (≈ 0.692 µM) in assay [4] (MRSA (26)); 16 µg/mL (≈ 44.3 µM) in [4] (Quinolone-resistant MRSA (31)); 16 µg/mL in [4] (setting [18]); 2 with S. pneumoniae (SPN CipR (29)); 0.5 in the assay with S. pneumoniae (SPN PenI (103)); 0.5 with S. pneumoniae (SPN PenR (34)). In addition, the MIC50 against S. pneumoniae (SPN PenS (519)) is 0.5; against S. pneumoniae (SPN-All (656)), 0.5; in assay [5] (CA-MRSA (23)), 4; in [5] (HA-MRSA (91)) it was >32/>32; in assay [5] (MSSA (372)), 0.25; in [5] (VISA (12), NARSA isolates) it was 32/>32. For the same compound, the MIC50 was >32/>32 in assay [6] (MRSE (9)), 4 in assay [6] (MSSE (32)), 2 with E. faecalis and 250 µg/mL (≈ 692 µM) in the assay with H. pylori isolates. Further, the MIC90 in assay [1] (setting [13]) is over 32 µg/mL; in assay [1] (setting [14]), over 32 µg/mL; in assay [1] (setting [15]), 8 µg/mL (≈ 22.1 µM); in [1] (setting [16]), 0.25 µg/mL (≈ 0.692 µM); in assay [1] (setting [17]), over 32 µg/mL; in assay [1] (MRSA (n = 193)), over 32 µg/mL. For the same compound, the MIC90 in assay [4] (MRSA (26)) was determined as 0.5 µg/mL (≈ 1.38 µM); in assay [4] (Quinolone-resistant MRSA (31)), 32 µg/mL (≈ 88.6 µM); in [4] (setting [18]) it was 32 µg/mL; against S. pneumoniae (SPN CipR (29)) it was 16; against S. pneumoniae (SPN PenI (103)), 1; against S. pneumoniae (SPN PenR (34)) it was 2. Also, the MIC90 was 1 in the assay with S. pneumoniae (SPN PenS (519)); 1 in the assay with S. pneumoniae (SPN-All (656)); 8 in assay [5] (CA-MRSA (23)); >32/>32 in assay [5] (HA-MRSA (91)); 4 in assay [5] (MSSA (372)); 32/>32 in assay [5] (VISA (12), NARSA isolates). The MIC90 in [6] (MRSE (9)) was >32/>32; in [6] (MSSE (32)), over 32; with E. faecalis, over 32; against H. pylori isolates, 500 µg/mL (≈ 1380 µM). Besides, the MIC in assay [1] (setting [7]) is over 32 µg/mL; in assay [1] (setting [8]) it was 0.25 µg/mL (≈ 0.692 µM); in assay [4] (read-out: MIC Range, MRSA (26)), 0.25 to 1 µg/mL (≈ 0.692 to 2.77 µM). Besides, the “median MIC (single value under head MIC50/MIC90)” value in [5] (VRSA (7), NARSA isolates) is 32. The “share of isolates resistant” value in the assay with H. pylori isolates is reported as 2%. Besides, the “MIC50/MIC90 (single value printed)” value in assay [3] (MRSP-Levo (R)) was over 128 µg/mL; in assay [3] (MRSP-Levo (S)), 16 µg/mL (≈ 44.3 µM).

Regarding `COc1c(N2C[C@@H]3CCCN[C@@H]3C2)c(F)cc2c(=O)c(C(=O)O)cn(C3CC3)c12` [Moxifloxacin], the MIC50 in assay [4] (MRSA (26)) is 0.06 µg/mL (≈ 0.149 µM); in [4] (Quinolone-resistant MRSA (31)), 4 µg/mL (≈ 9.96 µM); in [4] (setting [18]), 4 µg/mL; against H. pylori isolates it was 250 µg/mL (≈ 623 µM). Also, the MIC90 in [4] (MRSA (26)) came to 0.06 µg/mL (≈ 0.149 µM); in assay [4] (Quinolone-resistant MRSA (31)), 8 µg/mL (≈ 19.9 µM); in [4] (setting [18]), 8 µg/mL; against H. pylori isolates, 500 µg/mL (≈ 1250 µM). For the same compound, the MIC in [4] (read-out: MIC Range, MRSA (26)) fell in the range of 0.03 to 0.25 µg/mL (≈ 0.0747 to 0.623 µM); in [4] (read-out: MIC Range, Quinolone-resistant MRSA (31)), 1 to 8 µg/mL (≈ 2.49 to 19.9 µM); in [4] (read-out: MIC Range, hVISA(2) + VISA (24) + VRSA (5)), 0.06 to 8 µg/mL.
